Measurements from patent US5164388A, “Heterocyclic peptide renin inhibitors” (Abbott Laboratories, priority 1991, dated 1992).

Biological target: T1, human renal renin (Homo sapiens, UniProt P00797)
T1 construct: human renal renin, free from acid proteolytic activity; from tissue
T1 sequence (P00797 67-406): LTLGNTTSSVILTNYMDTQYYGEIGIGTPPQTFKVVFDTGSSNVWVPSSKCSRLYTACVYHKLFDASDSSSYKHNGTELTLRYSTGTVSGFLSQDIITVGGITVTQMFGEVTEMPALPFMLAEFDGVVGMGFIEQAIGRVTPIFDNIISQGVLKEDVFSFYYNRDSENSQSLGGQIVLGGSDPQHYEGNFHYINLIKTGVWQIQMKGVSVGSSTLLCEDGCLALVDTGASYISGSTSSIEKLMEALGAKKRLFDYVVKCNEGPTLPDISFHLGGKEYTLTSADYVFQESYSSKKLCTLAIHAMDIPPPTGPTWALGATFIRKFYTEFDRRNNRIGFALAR
Test: Inhibition of human renal renin in vitro (angiotensin I formed, radioimmunoassay)
Type: biochemical
Details: human angiotensinogen substrate, 37 degrees C., pH 6.0
Method: The novel compounds of the present invention are also useful for treating congestive heart failure. […] At the end of the incubation, the amount of angiotensin I formed is measured by radioimmunoassay and the molar concentration required to cause 50% inhibition, expressed as the IC50, is calculated.

SMILES	IC50
CCCCC(C(=O)N[C@@H](CC1CCCCC1)[C@@H](O)[C@@H](O)CC(C)C)N1CCCC(Cc2ccccc2)C1=O (mixture of isomers) [Example 56A, 2(RS)-(3-Benzyl-2-oxo-1-piperidin-1-yl)-hexanoic acid Amide of 2(S)-Amino-1-cyclohexyl-3(R),4(S)-dihydroxy-6-heptane]	410 nM
CC(C)C[C@H](O)[C@H](O)[C@H](CC1CCCCC1)NC(=O)C(Cc1cnc[nH]1)N1CCC[C@@](Cc2ccccc2)(NC(=O)OCc2ccccc2)C1=O (single isomer, unassigned) [Example 87, (2R or 2S)-((3S)-(Benzyloxycarbonyl)amino)-3-phenylmethyl-2-oxo-1-piperidinyl)-3-(4-imidazolyl)propionic acid amide of (2S,3R,4S)-2-amino-1-cyclohexyl-3,4-dihydroxy-6-methylheptane]	1.4 nM
CC(C)C[C@H](O)[C@H](O)[C@H](CC1CCCCC1)NC(=O)C(Cc1cnc[nH]1)N1CCC[C@](Cc2ccccc2)(NC(=O)OCc2ccccc2)C1=O (single isomer, unassigned) [Example 88, (2R or 2S)-((3R)-((Benzyloxycarbonyl)amino)-3-phenylmethyl-2-oxo-1-piperidinyl)-3-(4-imidazolyl)propionic acid amide of (2S,3R,4S)-2-amino-1-cyclohexyl-3,4-dihydroxy-6-methylheptane]	28 nM
CCCCC(C(=O)N[C@@H](CC1CCCCC1)[C@@H](O)[C@@H](O)CC(C)C)N1CCN(c2ncccn2)CC1 (stereo partly drawn) [Example 12A, 2-(4-(2-Pyrimidyl)-piperazin-1-yl)-hexanoic acid Amide of 2(S)-Amino-1-cyclohexyl-3(R),4(S)-dihydroxy-6-methylheptane]	770 nM
CCCCC(C(=O)N[C@@H](CC1CCCCC1)[C@@H](O)[C@@H](O)CC(C)C)N1CCC(Cc2ccccc2)CC1 (stereo partly drawn) [Example 13, 2-(4-Benzylpiperidin-1-yl)-hexanoic acid Amide of 2(S)-Amino-1-cyclohexyl-3(R),4(S)-dihydroxy-6-methylheptane]	430 nM
CCCCC(C(=O)N[C@@H](CC1CCCCC1)[C@@H](O)[C@@H](O)CC(C)C)N1CCCC(Cc2ccccc2)C1 (stereo partly drawn) [Example 18, 2-(3-Benzylpiperidin-1-yl)-hexanoic acid Amide of 2(S)-Amino-1-cyclohexyl-3(R),4(S)-dihydroxy-6-methylheptane]	920 nM
CCCCC(C(=O)N[C@@H](CC1CCCCC1)[C@@H](O)[C@@H](O)CC(C)C)N1CCCC(Cc2ccccc2)C1 (stereo partly drawn) [Example 20, 2(3-Benzylpiperidin-1-yl)-hexanoic acid Amide of 2(S)-Amino-1-cyclohexyl-3(R),4(S)-dihydroxy-6-methylheptane]	240 nM
CCCC[C@H](NC[C@@H](Cc1ccccc1)NC(=O)OCc1ccccc1)C(=O)OC [Example 21]	62 nM
CCCC[C@@H](C(=O)OC)N(CC(=O)OCc1ccccc1)C[C@@H](Cc1ccccc1)NC(=O)OCc1ccccc1 [Example 22]	300 nM
CCCC[C@@H](C(=O)N[C@@H](CC1CCCCC1)[C@@H](O)[C@@H](O)CC(C)C)N1CC(=O)N[C@H](Cc2ccccc2)C1 [Example 24]	170 nM
CCCCC(C(=O)N[C@@H](CC1CCCCC1)[C@@H](O)[C@@H](O)CC(C)C)N1CCN(Cc2ccccc2)CC1 (stereo partly drawn) [Example 32A, 2-(4-Benzyl-piperazin-1-yl)-hexanoic acid Amide of 2(S)-Amino-1-cyclohexyl-3(R),4(S)-dihydroxy-6-methylheptane]	810 nM

More lines, now with the values ahead:

IC50	SMILES
15 nM	CC(C)C[C@H](O)[C@H](O)[C@H](CC1CCCCC1)NC(=O)C(Cc1cnc[nH]1)N1CCC(Cc2ccccc2)(NC(=O)OCc2ccccc2)C1=O (single isomer, unassigned) [Example 63B]
4.5 nM	CC(C)C[C@H](O)[C@H](O)[C@H](CC1CCCCC1)NC(=O)C(Cc1cnc[nH]1)N1CCC(Cc2ccccc2)(NC(=O)OCc2ccccc2)C1=O (single isomer, unassigned) [Example 63C]
